Measured values from ChEMBL document CHEMBL1201862, “PubChem BioAssay data set” (2004).
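Protocol summary: plate cells (96-well), add compound at 5 concentrations, incubate 48 h, interpolate endpoints linearly. Here, GI50 denotes the concentration required for 50% inhibition of growth.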 Activity calls are given as the source filed them. Rule as the data show it: active = GI50 up to about 1.1 µM and inactive = higher.

What was measured:
Test in all cases: DTP human tumour cell line panel, 48 h
[1] = tested on: 786-0
[2] = tested on: CAKI-1
[3] = tested on: CCRF-CEM
[4] = tested on: HCT-116
[5] = tested on: HCT-15
[6] = tested on: HOP-62
[7] = tested on: K562
[8] = tested on: LOX IMVI
[9] = tested on: M14
[10] = tested on: OVCAR-5
[11] = tested on: SW-620
[12] = tested on: UACC-257
[13] = tested on: EKVX
[14] = tested on: RXF 393

For `C[C@]12CCC(=O)C[C@H]1CCC(O)[C@@H]2Br` (stereo partly specified), which GI50 [1] is on record?
The GI50 was > 100 µM (inactive).

And the GI50 [2]?
Its GI50 is > 100 µM (inactive).

And the GI50 [3]?
Its GI50 is > 100 µM (inactive).

And the GI50 [4]?
Its GI50 is > 100 µM (inactive).

And the GI50 [5]?
The GI50 was over 100 µM.

What about the GI50 [6] of the same compound?
Its GI50 is > 100 µM (inactive).

What about the GI50 [7] of the same compound?
Its GI50 is > 100 µM (inactive).

What about the GI50 [8] of the same compound?
Its GI50 is > 100 µM (inactive).

What about the GI50 [9] of the same compound?
Its GI50 is > 100 µM (inactive).

And the GI50 [10]?
Its GI50 is > 100 µM (inactive).

And the GI50 [11]?
The GI50 was > 100 µM (inactive).

What about the GI50 [12] of the same compound?
Its GI50 is > 100 µM (inactive).

How did the GI50 [1] turn out when `O=C1[C@H]2ON(c3ccccc3)C(c3ccccc3Cl)[C@H]2C(=O)N1c1ccc(Cc2ccc(N3C(=O)[C@@H]4ON(c5ccccc5)C(c5ccccc5Cl)[C@@H]4C3=O)cc2)cc1` (stereo partly specified) was run?
Its GI50 is > 100 µM (inactive).

And the GI50 [2]?
The GI50 was > 100 µM (inactive).

What about the GI50 [3] of the same compound?
Its GI50 is > 100 µM (inactive).

What about the GI50 [13] of the same compound?
Its GI50 is > 100 µM (inactive).

What about the GI50 [4] of the same compound?
The GI50 was > 100 µM (inactive).

And the GI50 [5]?
Its GI50 is over 100 µM.

And the GI50 [6]?
The GI50 was > 100 µM (inactive).

What about the GI50 [7] of the same compound?
The GI50 was > 100 µM (inactive).

What about the GI50 [8] of the same compound?
Its GI50 is > 100 µM (inactive).

And the GI50 [9]?
The GI50 was 21.7 µM (inactive).

And the GI50 [10]?
The GI50 was > 100 µM (inactive).

And the GI50 [11]?
The GI50 was > 100 µM (inactive).

And the GI50 [12]?
The GI50 was > 100 µM (inactive).

For `N#CCCN(CCC#N)c1ccc(/C=C2\N=C(COc3ccc(Cl)cc3Cl)OC2=O)cc1`, which GI50 [1] is on record?
Its GI50 is > 100 µM (inactive).

And the GI50 [2]?
Its GI50 is > 100 µM (inactive).

And the GI50 [3]?
Its GI50 is > 100 µM (inactive).

What about the GI50 [13] of the same compound?
The GI50 was > 100 µM (inactive).

And the GI50 [4]?
The GI50 was > 100 µM (inactive).

And the GI50 [5]?
Its GI50 is over 100 µM.

And the GI50 [6]?
The GI50 was > 100 µM (inactive).

And the GI50 [7]?
The GI50 was > 100 µM (inactive).

And the GI50 [8]?
Its GI50 is > 100 µM (inactive).

And the GI50 [9]?
The GI50 was > 100 µM (inactive).

And the GI50 [10]?
Its GI50 is > 100 µM (inactive).

And the GI50 [11]?
The GI50 was > 100 µM (inactive).

What about the GI50 [12] of the same compound?
The GI50 was > 100 µM (inactive).

With `N=C(c1ccccc1)N1CCCCC1` as the compound, how does the GI50 [1] read?
The GI50 was > 100 µM (inactive).

What about the GI50 [2] of the same compound?
The GI50 was > 100 µM (inactive).

And the GI50 [13]?
The GI50 was > 100 µM (inactive).

What about the GI50 [4] of the same compound?
Its GI50 is > 100 µM (inactive).

And the GI50 [6]?
Its GI50 is > 100 µM (inactive).

What about the GI50 [8] of the same compound?
The GI50 was > 100 µM (inactive).

And the GI50 [9]?
Its GI50 is > 100 µM (inactive).

What about the GI50 [10] of the same compound?
The GI50 was > 100 µM (inactive).

What about the GI50 [14] of the same compound?
Its GI50 is > 100 µM (inactive).

What about the GI50 [11] of the same compound?
The GI50 was > 100 µM (inactive).

And the GI50 [12]?
Its GI50 is > 100 µM (inactive).

Which GI50 [1] does the source give for `C[C@@H]1C[C@]2(C[C@@H](C)C3[C@@H](CC4(C)[C@@H]5CCC6C(C)(C)OC(=O)C=C[C@]67C[C@@]5(CC[C@]34C)OO7)O2)OC1=O` (stereo partly specified) here?
The GI50 was > 100 µM (inactive).

What about the GI50 [4] of the same compound?
Its GI50 is 61.5 µM (inactive).

And the GI50 [5]?
Its GI50 is over 100 µM.

What about the GI50 [7] of the same compound?
Its GI50 is 28.1 µM (inactive).

What about the GI50 [8] of the same compound?
The GI50 was 44.2 µM (inactive).

What about the GI50 [9] of the same compound?
The GI50 was 48.1 µM (inactive).

And the GI50 [10]?
The GI50 was > 100 µM (inactive).

And the GI50 [14]?
The GI50 was > 100 µM (inactive).

And the GI50 [11]?
The GI50 was 84.3 µM (inactive).

What about the GI50 [12] of the same compound?
The GI50 was 55.2 µM (inactive).

Which GI50 [1] does the source give for `COC(=O)CC[C@]12C[C@]13CC[C@]1(C)C4C(C)C[C@]5(CC(C)C(=O)O5)OC4CC1(C)C3CCC2C(C)(C)O` (stereo partly specified) here?
The GI50 was > 100 µM (inactive).

And the GI50 [13]?
The GI50 was > 100 µM (inactive).

What about the GI50 [4] of the same compound?
The GI50 was 85.7 µM (inactive).

What about the GI50 [5] of the same compound?
The GI50 was 50.9 µM.

And the GI50 [6]?
The GI50 was 45.6 µM (inactive).

And the GI50 [7]?
The GI50 was 49.9 µM (inactive).

And the GI50 [8]?
Its GI50 is 32.5 µM (inactive).

What about the GI50 [9] of the same compound?
The GI50 was > 100 µM (inactive).

What about the GI50 [10] of the same compound?
Its GI50 is > 100 µM (inactive).

What about the GI50 [14] of the same compound?
Its GI50 is 46.8 µM (inactive).

What about the GI50 [11] of the same compound?
Its GI50 is 56 µM (inactive).

And the GI50 [12]?
The GI50 was 67.1 µM (inactive).

Which results are given for `CN(C)c1nnnn1-c1c(N)n(C)c(=O)n(C)c1=O`?
GI50 [1]: > 100 µM (inactive); GI50 [2]: > 100 µM (inactive); GI50 [3]: > 100 µM (inactive); GI50 [13]: > 100 µM (inactive); GI50 [4]: > 100 µM (inactive); GI50 [5]: > 100 µM; GI50 [6]: > 100 µM (inactive); GI50 [7]: > 100 µM (inactive); GI50 [8]: > 100 µM (inactive); GI50 [10]: > 100 µM (inactive); GI50 [11]: > 100 µM (inactive); GI50 [12]: > 100 µM (inactive)

Which results are given for `CCOc1ccccc1/N=N/c1ccc2oc(=O)c(C(=O)Nc3cccc(C)c3)cc2c1`?
GI50 [1]: 34 µM (inactive); GI50 [2]: 49.8 µM (inactive); GI50 [3]: 18.7 µM (inactive); GI50 [13]: 25.7 µM (inactive); GI50 [4]: 20.2 µM (inactive); GI50 [5]: 25.4 µM; GI50 [6]: 49.1 µM (inactive); GI50 [7]: 23.3 µM (inactive); GI50 [8]: 14.7 µM (inactive); GI50 [9]: 18.7 µM (inactive); GI50 [10]: > 100 µM (inactive); GI50 [11]: 31.3 µM (inactive); GI50 [12]: 26.1 µM (inactive)
